Broadly, the MIC is the lowest concentration that inhibits growth of the organism.

The results in this text go back to patent publication US7323433B2, “R-(-)-1-[2-(7-chlorobenzo[b]thiopen-3-yl-methoxy)-2-(2,4-dichlorophenyl)-ethyl]-1H-imidazole” (Ferrer Internacional, S.A., priority 2002, dated 2008).

Common to all, as to format: cell-based
One assay concerns Malassezia spp. Description: MIC by modified NCCLS M27-A microdilution, Malassezia spp. The note with it: 11 strains, geometric mean, MIC = lowest concentration giving 50% inhibition of growth. The procedure: (§1) Minimal Inhibitory Concentrations (MICs) were determined by using a modification of the microdilution method M27-A recommended by the National Committee for Clinical Laboratory Standards in RPMI-1640 medium (Sigma) supplemented with glucose to a concentration of 2% and adjusted to pH 7.0 with 0.165 M morpholine propanesulfonic (MOPS) acid buffer. Serial twofold dilutions were made in modified RPMI-1640 medium from stock solutions. MICs were defined as the lowest drug concentrations resulting in 50% inhibition of growth compared to that of the growth control. […] The number of strains used in the experiments is given in parenthesis below the name of each microorganism.

The subject of a further assay is Dermatophytes. Description: MIC by modified NCCLS M27-A microdilution, Dermatophytes. The note with it: 17 strains, geometric mean, MIC = lowest concentration giving 50% inhibition of growth. The procedure: as §1
On the technique in general: Broth dilution looks for growth in wells or tubes with falling amounts of substance.

The test system of a further assay is Filamentous fungi. Description: MIC by modified NCCLS M27-A microdilution, Filamentous fungi. The note with it: 11 strains, geometric mean, MIC = lowest concentration giving 50% inhibition of growth. Here is the method:
as §1

In another assay the test system is Candida spp. Description: MIC by modified NCCLS M27-A microdilution, Candida spp. As to conditions: 42 strains, geometric mean, MIC = lowest concentration giving 50% inhibition of growth. Here is the method: as §1
Another assay concerns fungi and yeasts. Description: Microbiological activity (MIC) overall, comparison of enantiomers and racemate. The procedure: as §1
[1] abbreviates: RPMI-1640 2% glucose pH 7.0, read-out: MIC.

Each structure is given as a SMILES string. ≈ marks a conversion by molar mass, not a printed value. Where two headings read alike, the source gives them in different places.

Turning to `Clc1ccc(C(Cn2ccnc2)OCc2csc3c(Cl)cccc23)c(Cl)c1` (racemic) [Racemate, 1-[2-(7-chlorobenzo[b]thiophen-3-yl-methoxy)-2-(2,4-dichlorophenyl)-ethyl]-1H-imidazole], the MIC with Malassezia spp (setting [1]) was 1.37 µg/mL (≈ 3.13 µM); in the assay on Dermatophytes (setting [1]) it was 0.08 µg/mL (≈ 0.183 µM); in the assay on Filamentous fungi (setting [1]), 3.11 µg/mL (≈ 7.1 µM); in the assay on Candida spp (setting [1]), 0.256 µg/mL (≈ 0.585 µM).
`Clc1ccc([C@@H](Cn2ccnc2)OCc2csc3c(Cl)cccc23)c(Cl)c1.O=[N+]([O-])O` (single isomer, unassigned) [S-(+)enantiomer]: the MIC in the assay on Malassezia spp (RPMI-1640 2% glucose pH 7.0) was 10.96 µg/mL; in the assay on Dermatophytes (RPMI-1640 2% glucose pH 7.0), 0.17 µg/mL; against Filamentous fungi (RPMI-1640 2% glucose pH 7.0), 16 µg/mL; in the assay on Candida spp (RPMI-1640 2% glucose pH 7.0) it was 3.217 µg/mL. Also, in the assay with fungi and yeasts (in words, from Table 1), the “microbiological activity in comparison with R-(−)sertaconazole” value was “much less active”.
For `Clc1ccc([C@H](Cn2ccnc2)OCc2csc3c(Cl)cccc23)c(Cl)c1.O=[N+]([O-])O` [R-(−)enantiomer, (R)-(−)-1-[2-(7-chlorobenzo[b]thiophen-3-yl-methoxy)-2-(2,4-dichlorophenyl)-ethyl]-1H-imidazole mononitrate], the MIC in the assay on Malassezia spp (setting [1]) turned out to be 0.64 µg/mL; with Dermatophytes (setting [1]), 0.04 µg/mL; in the assay with Filamentous fungi (setting [1]) it was 1.76 µg/mL; with Candida spp (setting [1]), 0.125 µg/mL. Moreover, in the assay on fungi and yeasts (against both fungi and yeasts, as shown in Table 1), the “activity compared with the racemic mixture” value is recorded as “about 2 times”.
